Measurements: publication PMC6271218, “Pharmacokinetics, Tissue Distribution and Excretion of Verticinone from F. hupehensis in Rats” (Molecules, 2014)
Read-outs that look alike come from different tables or passages of the source.

How the values were obtained:
[1] = parameters: method as in PMID 19417735; conditions: mice; cited from earlier work
[2] = Plasma protein binding in vitro by ultrafiltration, rat plasma; assay type: in vitro ADME, rats
Description: The ability of verticinone to bind to plasma protein was determined by the ultrafiltration method. A Centrifree Micropartition device (Millipore, Beverly, MA, USA) was used to separate unbound and bound verticinone. Verticinone of different concentrations were added into blank rat and human plasma to give final concentrations at 5, 30 and 100 ng/mL. The spiked plasma was incubated for 30 min at 37 °C and an aliquot (100 μL) was analyzed by previously described methods to determine the total concentration of verticinone. The ultrafiltrate was obtained by centrifuging at 14,000 rpm for 10 min. The concentration of unbound verticinone in filtrate was similarly determined by the previously described methods. The percentage of free fraction (p) of verticinone was calculated as follow: p = (concentration of verticinone in ultrafiltrate/concentration of verticinone in original spiked plasma sample) × 100%.

[3] = Metabolic rate in rat liver microsomes; assay type: in vitro ADME
[4] = Excretion study (urine, bile, feces) after oral dose; assay type: in vivo, SD rats; conditions: for dose excreted: SD, rat, faeces, oral, read-out: recovery from feces; for dose excreted / cumulative excreted fraction in bile (% of administered dose) / cumulative excreted fraction in feces (% of administered dose) / unchanged verticinone excreted from urine and feces / cumulative excreted fraction in urine (% of administered dose): i.g. 2 mg/kg; for dose excreted as unchanged parent compound: 2 mg/kg oral dose; for cumulative excreted fraction in bile (% of administered dose): bile 24 h; for cumulative excreted fraction in feces (% of administered dose): feces 36 h; for cumulative excreted fraction in urine (% of administered dose): unchanged verticinone
Description: Ten rats were housed separately in metabolic cages and received a single oral dose of 2 mg/kg verticinone. Urine was collected at 0, 4, 8, 12, and 24 h for female rats and at 0, 4, 8, 12, 24, 36 h for male rats. Feces were collected at 0, 12, 24, and 36 h for female rats and at 0, 8, 12, 24, 36 h for male rats. The volume of urine samples was measured before storage at −20 °C. Feces were weighted and homogenized in 5 volumes (v/w) of 50% methanol/50% water and stored at −20 °C until analysis. In addition, ten rats were anesthetized with ether and then the bile ducts were cannulated with polyethylene tube. The rats also received a single oral dose of 2 mg/kg verticinone. Bile was collected at 0, 2, 4, 6, 8, 12, and 24 h after dosing and stored at −20 °C until analysis. Verticinone was extracted from urine, feces and bile samples based on the method described for tissue samples.
The quantification of verticinone was performed by a LC-MS method based on the previously reported method with slight modifications. The liquid chromatography system consisted of a model 2010 chromatograph (Shimadzu, Kyoto, Japan) equipped with a Shim-Pack VP-ODS C18 column (150 mm × 2.0 mm, 5 μm). A Shimadzu 2010 mass spectrometer (Q-array-Octapole-Quadrupole mass analyzer) equipped with an electrospray ionization interface was used for MS detection. The mobile phase consisted of (A) distilled water and (B) methanol, and the flow rate was 0.2 mL/min. Chromatography separation was achieved using a gradient elution program, as follows: 0.03→6.0 min, B% 15→85; 6.0→7.0 min, B% 85→85; 7.0→8.0 min, B% 85→15; 8.0–12.0 min, B% 15→15. The column and autosampler tray temperature were kept constant at 35 °C and 20 °C, respectively. For the determination of verticinone, the positive mode was selected, along with the conditions as follows.
CDL voltage […], probe voltage 4.5 kV, CDL temperature 250 °C, block temperature 200 °C, gas flow 1.5 L/min. Hupehenine was used as the internal standard (IS). Both verticinone and IS were detected using selected ion monitoring (SIM) at m/z 430.25 for verticinone and m/z 416.30 for hupehenine (IS), with a dwell time of 200 ms. Blank plasma, tissue homogenate, urine, feces homogenate and bile were used to prepare the corresponding calibration curves to avoid different matrix effects.

## C[C@H]1CC[C@@H]2N(C1)C[C@H]1[C@@H]3C[C@H]4[C@@H](CC(=O)[C@H]5C[C@@H](O)CC[C@@]54C)[C@@H]3CC[C@@H]1[C@]2(C)O [verticinone, Verticinone]
[1]
  addictive effect: no addictive effect
[2]; rat plasma, 5 ng/mL, ultrafiltration, n = 4, read-out: Protein binding rates (%) (converted)
  fraction unbound at 30 min, 5 ng/mL: 0.087
[2]; rat plasma, 30 ng/mL, ultrafiltration, n = 4, read-out: Protein binding rates (%)
  fraction unbound at 30 min, 30 ng/mL: 0.09
[2]; rat plasma, 100 ng/mL, ultrafiltration, n = 4, read-out: Protein binding rates (%) (converted)
  fraction unbound at 30 min, 100 ng/mL: 0.102
[2]; rat, plasma, rats, concentration range 5~100 ng/mL
  fraction unbound at 30 min: 0.087 to 0.102
[3]; female rats
  metabolic rate in rat liver microsomes: 3.76 × 10^−3 nmol/min/mg protein
[3]; females vs males
  metabolic rate in rat liver microsomes, females faster than males: about 1.7 times
[3]; male rats
  metabolic rate in rat liver microsomes: 2.18 × 10^−3 nmol/min/mg protein
[4]; female rats
  dose excreted: < 1%
  dose excreted as unchanged parent compound: less than 1%
  cumulative excreted fraction in bile (% of administered dose): 0.02% ± 0.01
  cumulative excreted fraction in feces (% of administered dose): 0.42% ± 0.29
  unchanged verticinone excreted from urine and feces: 0.6%
[4]; male rats
  dose excreted: < 1%
  dose excreted as unchanged parent compound: less than 4%
  cumulative excreted fraction in bile (% of administered dose): 0.31% ± 0.21
  cumulative excreted fraction in feces (% of administered dose): 0.92% ± 0.53
  unchanged verticinone excreted from urine and feces: about 3.4%
[4]; female rats, urine 24 h
  cumulative excreted fraction in urine (% of administered dose): 0.23% ± 0.05
[4]; male rats, urine 36 h
  cumulative excreted fraction in urine (% of administered dose): 2.50% ± 0.98
